ChEMBL document CHEMBL1152546, “N-[2-chloro-9H-purin-6-yl]-N-cyclopropylglycylamino acids and derivatives: synthesis, evaluation as a class of novel analgesics, and 3D QSAR analysis” (2009)

How the values were obtained:
[1] = tested on: Mus musculus; assay: Analgesic activity in ICR mouse assessed as pain threshold variation at 6.25 umol/kg, po administered as single dose measured after 120 mins by tail flick test relative to control; format: functional
[2] = tested on: Mus musculus; assay: Analgesic activity in ICR mouse assessed as pain threshold variation at 12.5 umol/kg, po administered as single dose measured after 30 mins by tail flick test relative to control; format: functional
[3] = tested on: Mus musculus; assay: Analgesic activity in ICR mouse assessed as pain threshold variation at 6.25 umol/kg, po administered as single dose measured after 30 mins by tail flick test relative to control; format: functional
[4] = tested on: Mus musculus; assay: Analgesic activity in ICR mouse assessed as pain threshold variation at 12.5 umol/kg, po administered as single dose measured after 180 mins by tail flick test relative to control; format: functional
[5] = tested on: Mus musculus; assay: Analgesic activity in ICR mouse assessed as pain threshold variation at 6.25 umol/kg, po administered as single dose measured after 90 mins by tail flick test relative to control; format: functional
[6] = tested on: Mus musculus; assay: Analgesic activity in ICR mouse assessed as pain threshold variation at 25 umol/kg, po administered as single dose measured after 120 mins by tail flick test relative to control; format: functional
[7] = tested on: Mus musculus; assay: Analgesic activity in ICR mouse assessed as pain threshold variation at 12.5 umol/kg, po administered as single dose measured after 60 mins by tail flick test relative to control; format: functional
[8] = tested on: Mus musculus; assay: Analgesic activity in ICR mouse assessed as pain threshold variation at 25 umol/kg, po administered as single dose measured after 180 mins by tail flick test relative to control; format: functional
[9] = tested on: Mus musculus; assay: Analgesic activity in ICR mouse assessed as pain threshold variation at 12.5 umol/kg, po administered as single dose measured after 90 mins by tail flick test relative to control; format: functional
[10] = tested on: Mus musculus; assay: Analgesic activity in ICR mouse assessed as pain threshold variation at 25 umol/kg, po administered as single dose measured after 60 mins by tail flick test relative to control; format: functional
[11] = tested on: Mus musculus; assay: Analgesic activity in ICR mouse assessed as pain threshold variation at 12.5 umol/kg, po administered as single dose measured after 120 mins by tail flick test relative to control; format: functional
[12] = tested on: Mus musculus; assay: Analgesic activity in ICR mouse assessed as pain threshold variation at 25 umol/kg, po administered as single dose measured after 90 mins by tail flick test relative to control; format: functional
[13] = tested on: Mus musculus; assay: Analgesic activity in ICR mouse assessed as pain threshold variation at 6.25 umol/kg, po administered as single dose measured after 180 mins by tail flick test relative to control; format: functional
[14] = tested on: Mus musculus; assay: Analgesic activity in ICR mouse assessed as pain threshold variation at 25 umol/kg, po administered as single dose measured after 30 mins by tail flick test relative to control; format: functional
[15] = tested on: Mus musculus; assay: Analgesic activity in po dosed ICR mouse assessed as pain threshold variation administered as single dose measured after 30 to 180 mins by tail flick test; format: functional, organism-based
[16] = tested on: Mus musculus; assay: Analgesic activity in ICR mouse assessed as pain threshold variation at 12.5 umol/kg, po administered as single dose measured after 150 mins by tail flick test relative to control; format: functional
[17] = tested on: Mus musculus; assay: Analgesic activity in ICR mouse assessed as pain threshold variation at 25 umol/kg, po administered as single dose measured after 150 mins by tail flick test relative to control; format: functional
[18] = tested on: Mus musculus; assay: Analgesic activity in ICR mouse assessed as pain threshold variation at 6.25 umol/kg, po administered as single dose measured after 60 mins by tail flick test relative to control; format: functional
[19] = tested on: Mus musculus; assay: Analgesic activity in ICR mouse assessed as pain threshold variation at 6.25 umol/kg, po administered as single dose measured after 150 mins by tail flick test relative to control; format: functional

Row | Structure (SMILES) | Activity [1] | Activity [2] | Activity [3] | Activity [4] | Activity [5] | Activity [6] | Activity [7] | Activity [8] | Activity [9] | Activity [10] | Activity [11] | Activity [12] | Activity [13] | Activity [14] | Activity [15] | Activity [16] | Activity [17] | Activity [18] | Activity [19]
1 | N=C(N)NCCC[C@H](NC(=O)CN(c1nc(Cl)nc2[nH]cnc12)C1CC1)C(=O)O | 9.52% | 22.24% | 8.9% | 5.24% | 12.08% | 17.03% | 39.76% | 5.19% | 18.43% | 50.97% | 10.28% | 27.59% | 2.15% | 45.41% | Dose-dependent effect | 6.93% | 7.19% | 17.53% | 5.09%
2 | CC(C)[C@H](NC(=O)CN(c1nc(Cl)nc2[nH]cnc12)C1CC1)C(=O)OCc1ccccc1 | 9.26% | 15.95% | 7.69% | 4.58% | 11.83% | 27.33% | 26.47% | 12.93% | 23.59% | 55.49% | 14.96% | 51.32% | 3.22% | 33.43% | Dose-dependent effect | 5.43% | 17.91% | 13.94% | 3.07%
3 | NCCCC[C@H](NC(=O)CN(c1nc(Cl)nc2[nH]cnc12)C1CC1)C(=O)O | 7.05% | 16.33% | 8.04% | 2.99% | 14.48% | 16.37% | 31.34% | 6.07% | 22.04% | 53.76% | 9.79% | 28.84% | 2.61% | 31.18% | Dose-dependent effect | 7.39% | 11.64% | 16.6% | 2.82%
4 | NC(=O)C[C@H](NC(=O)CN(c1ncnc2c1ncn2C1CCCCO1)C1CC1)C(=O)OCc1ccccc1 (stereo not given in full) |  |  |  |  |  | 29.15% |  | 15.45% |  | 30.54% |  | 34.95% |  | 34.53% |  |  | 21.71% |  | 
5 | O=C(O)[C@@H]1CCCN1C(=O)CN(c1nc(Cl)nc2[nH]cnc12)C1CC1 |  |  |  |  |  | 23.61% |  | 6.67% |  | 34.94% |  | 25.99% |  | 31.47% |  |  | 7.29% |  | 
6 | O=C(CN(c1nc(Cl)nc2[nH]cnc12)C1CC1)N[C@@H](Cc1cnc[nH]1)C(=O)O |  |  |  |  |  | 10.66% |  | 3.39% |  | 27.68% |  | 16.07% |  | 31.71% |  |  | 4.42% |  | 
7 | O=C(CN(c1nc(Cl)nc2[nH]cnc12)C1CC1)N[C@@H](Cc1ccccc1)C(=O)O |  |  |  |  |  | 8.84% |  | 4.19% |  | 32.02% |  | 26.55% |  | 29.37% |  |  | 6.09% |  | 
8 | CC(C)[C@H](NC(=O)CN(c1ncnc2c1ncn2C1CCCCO1)C1CC1)C(=O)OCc1ccccc1 (stereo not given in full) |  |  |  |  |  | 25.79% |  | 5.65% |  | 34.85% |  | 30.14% |  | 21.83% |  |  | 21.08% |  | 
9 | C[C@@H](O)[C@H](NC(=O)CN(c1nc(Cl)nc2[nH]cnc12)C1CC1)C(=O)OCc1ccccc1 |  |  |  |  |  | 30.7% |  | 6.29% |  | 29.7% |  | 29.88% |  | 21.86% |  |  | 12.76% |  | 
10 | O=C(CN(c1ncnc2c1ncn2C1CCCCO1)C1CC1)N[C@@H](Cc1c[nH]c2ccccc12)C(=O)OCc1ccccc1 (stereo not given in full) |  |  |  |  |  | 22.58% |  | 5.15% |  | 51.9% |  | 38.93% |  | 43.53% |  |  | 11.45% |  | 
11 | O=C(O)C[C@H](NC(=O)CN(c1nc(Cl)nc2[nH]cnc12)C1CC1)C(=O)O |  |  |  |  |  | 21.95% |  | 3.17% |  | 38.9% |  | 25.14% |  | 19.85% |  |  | 11.63% |  | 
12 | O=C(OCc1ccccc1)[C@@H]1CCCN1C(=O)CN(c1nc(Cl)nc2[nH]cnc12)C1CC1 |  |  |  |  |  | 38.35% |  | 17.63% |  | 34.37% |  | 43.28% |  | 33.18% |  |  | 31.09% |  | 
13 | N=C(N)NCCC[C@H](NC(=O)CN(c1ncnc2c1ncn2C1CCCCO1)C1CC1)C(=O)OCc1ccccc1 (stereo not given in full) |  |  |  |  |  | 38.16% |  | 7.97% |  | 52.35% |  | 61.58% |  | 34.27% |  |  | 19.6% |  | 
14 | O=C(OCc1ccccc1)[C@@H]1CCCN1C(=O)CN(c1ncnc2c1ncn2C1CCCCO1)C1CC1 (stereo not given in full) |  |  |  |  |  | 17.49% |  | 6.63% |  | 36.73% |  | 23.31% |  | 32.25% |  |  | 7.85% |  | 
15 | O=C(CN(c1ncnc2c1ncn2C1CCCCO1)C1CC1)N[C@@H](Cc1ccc(O)cc1)C(=O)OCc1ccccc1 (stereo not given in full) |  |  |  |  |  | 17.44% |  | 5.02% |  | 35.82% |  | 36.45% |  | 20.53% |  |  | 8.71% |  | 
16 | CSCC[C@H](NC(=O)CN(c1nc(Cl)nc2[nH]cnc12)C1CC1)C(=O)O |  |  |  |  |  | 5.67% |  | 3.4% |  | 22.75% |  | 13.99% |  | 20.37% |  |  | 4.14% |  | 
17 | C[C@@H](O)[C@H](NC(=O)CN(c1ncnc2c1ncn2C1CCCCO1)C1CC1)C(=O)OCc1ccccc1 (stereo not given in full) |  |  |  |  |  | 10.91% |  | 2.34% |  | 28.36% |  | 23.38% |  | 23.61% |  |  | 6.53% |  | 
18 | CSCC[C@H](NC(=O)CN(c1nc(Cl)nc2[nH]cnc12)C1CC1)C(=O)OCc1ccccc1 |  |  |  |  |  | 31.55% |  | 10.66% |  | 30.76% |  | 44.55% |  | 22.22% |  |  | 17.64% |  | 
19 | O=C(CN(c1ncnc2c1ncn2C1CCCCO1)C1CC1)NCC(=O)OCc1ccccc1 (stereo not given) |  |  |  |  |  | 17.23% |  | 0.06% |  | 40.44% |  | 25.94% |  | 55.72% |  |  | 7.26% |  | 
20 | O=C(CN(c1ncnc2c1ncn2C1CCCCO1)C1CC1)N[C@@H](CCC(=O)OCc1ccccc1)C(=O)OCc1ccccc1 (stereo not given in full) |  |  |  |  |  | 20.71% |  | 10.93% |  | 34.74% |  | 25.2% |  | 32.61% |  |  | 14.14% |  | 
21 | CC(C)[C@H](NC(=O)CN(c1nc(Cl)nc2[nH]cnc12)C1CC1)C(=O)O |  |  |  |  |  | 17.06% |  | 3.04% |  | 38.79% |  | 30.28% |  | 31.15% |  |  | 7.86% |  | 
